Measurements taken from US5767268A, “Sulfuric acid esters of amino sugars” (Hoffmann-La Roche Inc., priority 1995, dated 1998).
Counter-ions that a name gives are not always drawn. Like-named read-outs stand apart in the source and are kept apart here.

How the values were obtained:
[1] = biological target: T1, Factor Xa (Bos taurus, UniProt P00743); experiment: Blood coagulation inhibition: inhibition of Factor Xa in the Chromogen Substrate Test; format: biochemical
T1 sequence (P00743 41-180 limits assumed): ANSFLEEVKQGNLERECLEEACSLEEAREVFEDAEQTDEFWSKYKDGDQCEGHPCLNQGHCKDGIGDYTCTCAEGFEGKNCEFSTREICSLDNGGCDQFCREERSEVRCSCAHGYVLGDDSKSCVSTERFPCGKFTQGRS
Description: (§1) Inhibition of thrombin or Factor Xa in the Chromogen Substrate Test (Teien et al., Thrombosis Research 10, 399-410 (1977)): The determination was effected in a Cobas-Bio centrifugal automatic spectrophotometer. The buffer solution used consisted of 50 mM Tris buffer, 180 mM NaCl, 7.5 mM EDTA Na2, 1% PEG 6000 and 0.02% Tween 80, pH 8.4. The test solution consisted of 50 μl of buffer, 30 μl of antithombin III (1U/ml, Kabi Diagnostica) and 20 μl of plasma which contained various concentrations of test compounds. 30 μl of sample solution and 20 μl of water with 180 μl of thrombin (1U/ml, Thrombin Reagent Roche Basle) were added to the test cuvette in the automatic analyzer. After incubation at 37° C. for 240 seconds, 60 μl of S-2238 (H-D-Phe-Pip-Arg-NH.pNA, Kabi Diagnostica, Mondal, Sweden, 0.75 mM in water) and 20 μl of water were added. The liberation of pNA (p-nitro-aniline) was followed during 60 seconds at 405 nm in 10 second intervals in comparison to water as the blank.
The inhibition of Factor Xa was measured in the same manner using a solution of Factor Xa (2.8 nkat/ml and 2 mM S-2222 (Bz-CO-Ile-Glu-Arg-NH.pNA, Kabi Diagnostica) in water in place of thrombin and, respectively, S-2238.

[2] = biological target: T2, thrombin (Homo sapiens, UniProt P00734); format: biochemical
T2 construct: purchased Roche Basle (Thrombin Reagent)
Description: as §1

[3] = test system: rat smooth muscle cells; experiment: Antiproliferative activity (ri, relative to heparin) in rat smooth muscle cells; format: cell-based; parameters: key: growth inhibition relative to heparin at 100 μg/ml, same experiment; details: 100 μg/ml, 48 h, relative to heparin at 100 μg/ml in the same experiment
Description: Antiproliferative Activity
The antiproliferative activity of a substance is expressed as the ri value which is a comparative value to the corresponding activity of heparin and which was determined in cell cultures as follows: rat smooth muscle cells were applied to cell culture plates in a density of 8×10^3 cells/well (medium: DMEM with 10% FCS. Cultivation at 37° C. and 5% CO2). After 4 hours, the number of adhered cells was determined and the substances to be tested (100 μg/ml, dissolved in H2 O) were added. […] Subsequently, the cells were incubated for 48 h. and thereafter the cell count was determined once more.
The inhibition i of the cell growth, that is, the reduction in the growth rate of the cells in percent compared to the control, was calculated from these values. [formula] the growth rate μbeing calculated as [formula] in which Z is the number of cells and d is the time in days.
Finally, ri --the relative inhibitory activity--which expresses the activity of a substance (at 100 μg/ml) in comparison to the activity of heparin in the same concentration in the same experiment, was calculated: [formula] Blood Coagulation Inhibition

[4] = test system: neointima in rat carotids; experiment: In vivo assay of the antiproliferative activity in damaged rat carotids (neointima); parameters: species or system rat (male Wistar Kyoto); details: 1 mg/kg/h i.v., p<0.001 t-test
Description: In vivo assay for the determination of the antiproliferative activity of the compounds in accordance with the invention in damaged rat carotids
After narcosis, the left carotids of male Wistar Kyoto rats (300-400 g) were damaged with a 2 F embolectomy catheter by drawing the catheter in the pumped-up state three times through the vessel. After wound healing, the animals were kept in pairs with standard feed and water ad libidum.
The compounds were administered in concentrations of 0.3-1 mg/kg/h i.v. For this purpose, during the narcosis an osmotic minipump was implanted into the animals under the dorsal skin and was attached to the jugular vein. Thus, the compounds could be administered constantly during the entire test period of 14 days.
After 14 days proliferative tissue (neointima) had formed, the size of which could be determined morphometrically on histological cross-sections.For this purpose, the rats were sacrificed and perfusion-fixed with glutaraldehyde.

[5] = with antithrombin III and plasma, S-2222 substrate; read-out: Anticoagulative Activity IC50 Factor Xa
[6] = with antithrombin III and plasma, S-2238 substrate, 37° C., pH 8.4; read-out: Anticoagulative Activity IC50 Thrombin
[7] = read-out: Anticoagulative Activity IC50 Factor Xa; with antithrombin III and plasma, S-2222 substrate
[8] = read-out: Anticoagulative Activity IC50 Thrombin; with antithrombin III and plasma, S-2238 substrate, 37° C., pH 8.4

SMILES | IC50 [1, 5] [µM] | IC50 [2, 6] [µM] | Antiproliferative Activity ri (relative inhibitory activity versus heparin) [3] | cross-sectional area of the neointima in rat carotids 14 days after balloonisation [4] | IC50 [1, 7] [µM] | IC50 [2, 8] [µM]
O=C(N[C@H]1[C@@H](OCc2ccccc2)O[C@H](CNC(=O)[C@H](OS(=O)(=O)O)[C@@H](OS(=O)(=O)O)[C@H](OS(=O)(=O)O)[C@@H](COS(=O)(=O)O)OS(=O)(=O)O)[C@@H](OS(=O)(=O)O)[C@@H]1OS(=O)(=O)O)c1ccc(-c2ccc(C(=O)N[C@H]3[C@@H](OCc4ccccc4)O[C@H](CNC(=O)[C@H](OS(=O)(=O)O)[C@@H](OS(=O)(=O)O)[C@H](OS(=O)(=O)O)[C@@H](COS(=O)(=O)O)OS(=O)(=O)O)[C@@H](OS(=O)(=O)O)[C@@H]3OS(=O)(=O)O)cc2)cc1 [Example 14, Biphenyl-4,4'-dicarboxylic acid bis-[[benzyl 2,6-didesoxy-3,4-di-O-sulfo-6-(2,3,4,5,6-penta-O-sulfo-D-gluconoylamino)-a-D-glucopyranosid-2-yl]-amide] tetradecasodium salt] | > 450 | > 450 | 1.2 | significantly reduced | – | –
O=C(N[C@H]1[C@@H](OCc2ccccc2)O[C@H](CNC(=O)[C@H](OS(=O)(=O)O)[C@@H](OS(=O)(=O)O)[C@H](OS(=O)(=O)O)[C@@H](COS(=O)(=O)O)OS(=O)(=O)O)[C@@H](OS(=O)(=O)O)[C@@H]1OS(=O)(=O)O)c1cccc(C(=O)N[C@H]2[C@@H](OCc3ccccc3)O[C@H](CNC(=O)[C@H](OS(=O)(=O)O)[C@@H](OS(=O)(=O)O)[C@H](OS(=O)(=O)O)[C@@H](COS(=O)(=O)O)OS(=O)(=O)O)[C@@H](OS(=O)(=O)O)[C@@H]2OS(=O)(=O)O)c1 [Example 24, Isophthalic acid bis-[[benzyl 2,6-didesoxy-6-(2,3,4,5,6-penta-O-sulfo-D-gluconoylamino)-3,4-di-O-sulfo-a-D-gluco-pyranosid-2-yl]-amide] tetradecasodium salt] | – | – | – | significantly reduced | – | –
O=C(N[C@H]1[C@@H](OCc2ccccc2)O[C@H](CN2C(=O)c3ccc4c5c(ccc(c35)C2=O)C(=O)N(C[C@H]2O[C@H](OCc3ccccc3)[C@H](NC(=O)c3ccc(NC[C@H](OS(=O)(=O)O)[C@@H](OS(=O)(=O)O)[C@H](OS(=O)(=O)O)[C@@H](COS(=O)(=O)O)OS(=O)(=O)O)c([N+](=O)[O-])c3)[C@@H](OS(=O)(=O)O)[C@@H]2OS(=O)(=O)O)C4=O)[C@@H](OS(=O)(=O)O)[C@@H]1OS(=O)(=O)O)c1ccc(NC[C@H](OS(=O)(=O)O)[C@@H](OS(=O)(=O)O)[C@H](OS(=O)(=O)O)[C@@H](COS(=O)(=O)O)OS(=O)(=O)O)c([N+](=O)[O-])c1 [Example 34, 2,7-Bis-[benzyl 2,6-didesoxy-2-[3-nitro-4-(2,3,4,5,6-penta-O-sulfo-D-glucit-1-ylamino)-benzoylamino]-3,4-di-O-sulfo-a-D-1 5 glucopyranosid-6-yl]-1,2,3,6,7,8-hexahydro-benzo[lmn][3,8] phenanthroline-1,3,6,8-tetraone tetradecasodium salt] | – | – | 3.9 | – | > 393 | > 393
CC(=O)Nc1cc(C(=O)N[C@H]2[C@@H](OCc3ccccc3)O[C@H](CNC(=O)c3cccc(C(=O)NC[C@H]4O[C@H](OCc5ccccc5)[C@H](NC(=O)c5ccc(N(C)C[C@H](OS(=O)(=O)O)[C@@H](OS(=O)(=O)O)[C@H](OS(=O)(=O)O)[C@@H](COS(=O)(=O)O)OS(=O)(=O)O)c(NC(C)=O)c5)[C@@H](OS(=O)(=O)O)[C@@H]4OS(=O)(=O)O)c3)[C@@H](OS(=O)(=O)O)[C@@H]2OS(=O)(=O)O)ccc1N(C)C[C@H](OS(=O)(=O)O)[C@@H](OS(=O)(=O)O)[C@H](OS(=O)(=O)O)[C@@H](COS(=O)(=O)O)OS(=O)(=O)O [Example 37, Isophthalic acid bis-[[benzyl 2-[3-acetylamino-4-[methyl-(2,3,4,5,6-penta-O-sulfo-D-glucit-1-yl)-amino]-benzoylamino]-2,6-didesoxy-3,4-di-O-sulfo-a-D-glucopyranosid-6-yl]-amide] tetradecasodium salt] | > 401 | > 401 | 1.9 | – | – | –
O=C(NC[C@H]1O[C@H](OCc2ccccc2)[C@H](NC(=O)c2ccc(NC[C@H](OS(=O)(=O)O)[C@@H](OS(=O)(=O)O)[C@H](OS(=O)(=O)O)[C@@H](COS(=O)(=O)O)OS(=O)(=O)O)c([N+](=O)[O-])c2)[C@@H](OS(=O)(=O)O)[C@@H]1OS(=O)(=O)O)c1cccc(C(=O)NC[C@H]2O[C@H](OCc3ccccc3)[C@H](NC(=O)c3ccc(NC[C@H](OS(=O)(=O)O)[C@@H](OS(=O)(=O)O)[C@H](OS(=O)(=O)O)[C@@H](COS(=O)(=O)O)OS(=O)(=O)O)c([N+](=O)[O-])c3)[C@@H](OS(=O)(=O)O)[C@@H]2OS(=O)(=O)O)c1 [Example 33, Isophthalic acid bis-[[benzyl 2,6-didesoxy-2-[4-(2,3,4,5,6-penta-O-sulfo-D-glucit-1-ylamino)-3-nitro-benzoylamino]-3,4-di-O-sulfo-a-D-glucopyranosid-6-yl]-amide] tetradecasodium salt] | – | – | 1.5 | – | > 409 | > 409
